Data from US9255272B2, “Use of inhibitors of leukotriene B4 receptor BLT2 for treating asthma” (Korea University Research & Business Foundation, priority 2007, dated 2016).

What was measured:
Format in all cases: in vivo, mouse
[1] = system: IκB-α; experiment: IκB-α level in lung tissue (Western blot); conditions: lung tissue extracts
Description: (§1) Female BALB/c mice and C57BL/6 mice (7 weeks old; 18-20 g) were obtained from Orientbion Inc. (Seoungnam, Korea). Sensitization and challenge were carried out as described previously with some modification (28). Briefly, female C57BL/6 mice (7 weeks old; 18-20 g) were immunized by intraperitoneal (i.p.) injection of 200 μg ovalbumin (OVA) emulsified in 2.5 mg of adjuvant aluminum hydroperoxide gel (alum) (Pierce, Rockford, Ill.). A second i.p. injection of 20 μg OVA adsorbed onto alum (2.5 mg) was administered 10 days later. After an additional 10 days, mice were exposed to an aerosol of 1% OVA in saline for 30 min daily on 3 consecutive days. On day 25, mice were finally challenged by provocation with 10% OVA aerosol. For inhibition experiments, sense or antisense BLT2 (1.6 mg/kg) was injected intravenously 24 h and then 1 h before the 10% OVA challenge. The mice were then killed on day 27 to assess asthmatic phenotypes. Antisense BLT2 oligonucleotide (5′-[…]-3′ (SEQ ID NO: 15)), sense BLT2 oligonucleotide (5′-[…]-3′ (SEQ ID NO: 16)).
Alternatively, BALB/c mice were sensitized on day 1 by i.p. injection of 20 μg OVA emulsified in 2.5 mg of alum (Pierce, Rockford, Ill.), followed by an identical booster injection administered on day 14. On days 21, 22 and 23 after initial sensitization, the mice were challenged for 30 min with an aerosol of 1% OVA using an ultrasonic nebulizer. […]

[2] = system: NF-κB; experiment: NF-κB binding activity in lung nuclear extracts (EMSA)
Description: as §1
A double-strand oligonucleotide corresponding to the consensus NF-κB binding motif and a mutant sequence were purchased from Santa Cruz Biotechnology Inc. (Santa Cruz, Calif.) and labeled with γ-32P-ATP using T4 polynucleotide kinase (Roche, Germany). […]

[3] = system: OVA-challenged mice; experiment: Recruitment of CD4+ and CD8+ T cells into BAL fluid (flow cytometry); conditions: BAL fluid 12 hr after 10% OVA challenge
Excerpt: FIGS. 8a and 8b show recruitment of T lymphocytes into airways. FIG. 8a depicts FACS analysis showing recruitment of CD4+ T cells into the BAL fluid of mice 12 hr after aerosol OVA challenge. FIG. 8b depicts FACS analysis showing recruitment of CD8+ T cells into the BAL fluid of mice 12 hr after aerosol OVA challenge. BAL fluid was collected 12 hr after 10% OVA challenge and washed with PBS. The leukocytes present were stained with FITC-conjugated anti-mouse TCR chain and PE-cy5 anti-mouse CD8a or PE rat anti-mouse CD4 after blocking with anti-FcRyantibody. Samples were then analyzed by flow cytometry to assess T lymphocyte recruitment. Data are means±SEM (n=6 in each group). *P<0.05 vs. OVA/asBLT2. For flow cytometric analysis, the cells in the BAL fluid were suspended in 50 μl of PBS containing 0.01% sodium azide and 0.1% BSA. BAL leukocytes were incubated for 30 min with 2.4G2 anti-FcγIII/II receptor (BD PharMingen) and stained for 30 min at 4° C. with FITC-conjugated anti-mouse TCR. chain (BD PharMingen) and PE-cy5 anti-mouse CD8a (BD PharMingen) or PE rat anti-mouse CD4 (BD PharMingen). Cytofluorimetry was performed with a FACS Caiibur™ (Becton Dickinson, Franklin Lakes, N.J.), and the results were analyzed with CellQuest software (Becton-Dickinson).

For CCc1cc(C(C)=O)c(O)cc1OCCCCCC(C)(C)c1nnn[nH]1 [LY255283, 1-[5-ethyl-2-hydroxy-4-[[6-methyl-6-(1H-tetrazol-5-yl)heptyl]oxy]phenyl]-ethanone, reference compound], the “reduction of IκB-α degradation following OVA challenge” value ([1]; LY255283 2.5 mg/kg 1 hr before 1% OVA challenge) was −50%.

For “antisense BLT2: Antisense BLT2 oligonucleotide 5′-GCTCAGTAGTGTCTCATTCC-3′ (SEQ ID NO: 15) (listed as DNA, chemistry not fully specified)”, the “NF-κB binding activity elicited by OVA challenge” value ([2]; antisense BLT2 1.6 mg/kg i.v. 24 hr and 1 hr before provocation) was “attenuated”, the “reduction of IκB-α degradation following OVA challenge” value ([1]; antisense BLT2 1.6 mg/kg) was −50% and the “effect on T cell trafficking into airways” value [3] was “no inhibitory effect”.

For “antisense Rac: phosphorothioate 17-mer to the 5′ end of murine Rac mRNA, 5′-CACTTGATGGCCTGCAT-3′ (SEQ ID NO: 22) (listed as DNA, chemistry not fully specified)”, the “NF-κB binding activity elicited by OVA challenge” value ([2]; antisense Rac 1.25 mg/kg, tail vein) was “attenuated”.
